In patent US9856262B2, “Analogues of 4H-pyrazolo[1,5-a] benzimidazole compound as PARP inhibitors” (HUBEI BIO-PHARMACEUTICAL INDUSTRIAL TECHNOLOGICAL INSTITUTE …, priority 2014, dated 2018):

What was measured:
HCC1937 cells = test: Cellular PARylation assay; format: cell-based; conditions: Homo sapiens; HCC1937 cells, compound 30 min then 1 mM H2O2 10 min; read-out: cellular PARylation EC50
Description: Cellular PARylation Assay
HCC1937 cells were planted into 96 well plates at 4×10^4 cells/well and incubated at 37° C. in an incubator overnight. After being treated with a test compound for 30 min, cells were then treated with 1 mM H2O2 for 10 min. The cells were washed with 200 ul pre-chilled PBS twice and fixed with 100 ul pre-chilled methanol/acetone (7:3) on ice for 30 min. After being air-dried, the plates were blocked using PBS-Tween blocking solution (0.05%) with dissolved 5% nonfat dry milk for 30 min at room temperature. The cells were incubated with anti-PAR antibody 10H (1:100) at room temperature for 1 hour followed by washing with PBS-Tween20 for 3 times; and then added into a blocking solution including goat anti-mouse fluorescein isothiocyanate (FITC)-coupled secondary antibody and 1 μg/mL DAPI to incubate away from light at room temperature for 1 hour. After being washed with PBS-Tween20 for 3 times, the plate was analyzed with a fluorescence microplate counter (Flexstation III, Molecular Device).

PARP-1 = molecular target: T1, PARP-1 (Homo sapiens, UniProt P09874); test: PARP enzymatic assay (HT Universal Colorimetric PARP1 Assay Kit); format: biochemical; conditions: read-out: PARP-1 enzymatic inhibition IC50
T1 construct: purchased
T1 sequence (P09874 whole entry): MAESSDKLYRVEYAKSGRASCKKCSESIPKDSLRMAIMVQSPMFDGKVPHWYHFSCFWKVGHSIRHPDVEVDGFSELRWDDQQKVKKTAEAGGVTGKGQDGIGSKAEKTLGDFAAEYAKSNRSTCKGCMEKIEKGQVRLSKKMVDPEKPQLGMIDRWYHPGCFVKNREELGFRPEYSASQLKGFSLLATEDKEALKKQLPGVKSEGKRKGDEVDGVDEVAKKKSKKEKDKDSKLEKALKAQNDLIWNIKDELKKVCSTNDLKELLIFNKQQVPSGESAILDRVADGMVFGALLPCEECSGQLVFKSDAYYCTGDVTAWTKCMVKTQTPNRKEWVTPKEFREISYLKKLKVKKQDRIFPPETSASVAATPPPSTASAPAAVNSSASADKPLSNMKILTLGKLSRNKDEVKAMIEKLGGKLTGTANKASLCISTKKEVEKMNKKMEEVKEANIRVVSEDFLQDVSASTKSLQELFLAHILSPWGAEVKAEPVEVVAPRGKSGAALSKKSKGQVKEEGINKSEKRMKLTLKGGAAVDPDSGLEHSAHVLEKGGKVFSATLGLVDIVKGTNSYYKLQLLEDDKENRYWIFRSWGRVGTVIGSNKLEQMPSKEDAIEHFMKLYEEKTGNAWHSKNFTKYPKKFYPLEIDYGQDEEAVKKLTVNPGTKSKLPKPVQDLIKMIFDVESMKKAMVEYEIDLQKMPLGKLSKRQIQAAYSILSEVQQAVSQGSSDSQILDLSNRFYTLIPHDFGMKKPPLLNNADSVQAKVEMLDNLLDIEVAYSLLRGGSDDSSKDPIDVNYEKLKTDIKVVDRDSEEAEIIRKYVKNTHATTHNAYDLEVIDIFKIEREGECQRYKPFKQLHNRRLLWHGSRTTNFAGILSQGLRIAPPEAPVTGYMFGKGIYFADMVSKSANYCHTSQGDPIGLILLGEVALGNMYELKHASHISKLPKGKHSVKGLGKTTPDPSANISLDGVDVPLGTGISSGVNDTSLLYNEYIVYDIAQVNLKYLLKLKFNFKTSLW
Description: PARP Enzymatic Assay (Following the Manual of HT Universal Colorimetric PARP1 Assay Kit).
Histone proteins were coated on a 96-well plate and incubated overnight at 4° C. After be washed 3 times with 200 ul PBST solution, the plate was blocked with a blocking solution and incubated for 30 min at room temperature, and then washed with PBST solution 3 times. A compound to be tested was treated and added to the plate. Thereafter, 20 μl of diluted PARP1 (1 nM) or 20 μl of PARP2 (3 nM) solution was added into the reaction system and incubated for 1 or 2 hours. 50 ul of streptavidin-HRP mixture (1:50) was added into the plate and incubated for 30 min at room temperature. The plate was then washed with three times with PBST buffer. 100 μl of (HRP) (Chemiluminescent substrate A and substrate B (1:1)) was added into the plate, and the plate was immediately read on a microplate reader (Envision, PerkinElmer).

EC50 (HCC1937 cells)	IC50 (PARP-1)	Structure (SMILES)
0.101 to 1 µM	0.001 to 0.1 µM	CCN1CCCC1c1cnn2c1[nH]c1cc(F)cc(C(N)=O)c12 (centres unmarked) [Example 26, 3-(1-ethylpyrrolidin-2-yl)-6-fluoro-4H-benzo[4,5]imidazo[1,2-b]pyrazole-8-carboxamide]
0.001 to 0.1 µM	0.001 to 0.1 µM	CCN1CCC(c2cnn3c2[nH]c2cccc(C(N)=O)c23)CC1 [Example 27, 3-(1-ethylpiperidin-4-yl)-4H-benzo[4,5]imidazo[1,2-b]pyrazole-8-carboxamide]
0.001 to 0.1 µM	0.001 to 0.1 µM	CN1CC2CC2(c2cnn3c2[nH]c2cc(F)cc(C(N)=O)c23)C1 (centres unmarked) [Example 28, 6-fluoro-3-(3-methyl-3-azabicyclo[3.1.0]hexan-1-yl)-4H-benzo[4,5]imidazo[1,2-b]pyrazole-8-carboxamide]
0.001 to 0.1 µM	0.001 to 0.1 µM	CCN1CC2CC2(c2cnn3c2[nH]c2cc(F)cc(C(N)=O)c23)C1 (centres unmarked) [Example 29, 3-(3-ethyl-3-azabicyclo[3.1.0]hexan-1-yl)-6-fluoro-4H-benzo[4,5]imidazo[1,2-b]pyrazole-8-carboxamide]
0.001 to 0.1 µM	0.001 to 0.1 µM	NC(=O)c1cc(F)cc2[nH]c3c(C45CC4CN(C4CCC4)C5)cnn3c12 (centres unmarked) [Example 30, 3-(3-cyclobutyl-3-azabicyclo[3.1.0]hexan-1-yl)-6-fluoro-4H-benzo[4,5]imidazo[1,2-b]pyrazole-8-carboxamide]
0.001 to 0.1 µM	0.001 to 0.1 µM	NC(=O)c1cc(F)cc2[nH]c3c(C45CC4CN(CC4CC4)C5)cnn3c12 (centres unmarked) [Example 31, 3-(3-(cyclopropylmethyl)-3-azabicyclo[3.1.0]hexan-1-yl)-6-fluoro-4H-benzo[4,5]imidazo[1,2-b]pyrazole-8-carboxamide]
0.001 to 0.1 µM	0.001 to 0.1 µM	CC(C)N1CC2CC2(c2cnn3c2[nH]c2cc(F)cc(C(N)=O)c23)C1 (centres unmarked) [Example 32, 6-fluoro-3-(3-isopropyl-3-azabicyclo[3.1.0]hexan-1-yl)-4H-benzo[4,5]imidazo[1,2-b]pyrazole-8-carboxamide]
0.101 to 1 µM	0.001 to 0.1 µM	NC(=O)c1cc(F)cc2[nH]c3c(C4C5CNCC54)cnn3c12 (centres unmarked) [Example 33, 3-(3-azabicyclo[3.1.0]hexan-6-yl)-6-fluoro-4H-benzo[4,5]imidazo[1,2-b]pyrazole-8-carboxamide]
0.101 to 1 µM	0.001 to 0.1 µM	CCN1CC2C(C1)C2c1cnn2c1[nH]c1cc(F)cc(C(N)=O)c12 (centres unmarked) [Example 34, 3-(3-ethyl-3-azabicyclo[3.1.0]hexan-6-yl)-6-fluoro-4H-benzo[4,5]imidazo[1,2-b]pyrazole-8-carboxamide]
0.101 to 1 µM	0.001 to 0.1 µM	NC(=O)c1cc(F)cc2[nH]c3c(C4CC(O)CN4)cnn3c12 (centres unmarked) [Example 36, 6-fluoro-3-(4-hydroxypyrrolidin-2-yl)-4H-benzo[4,5]imidazo[1,2-b]pyrazole-8-carboxamide]
> 1 µM	0.001 to 0.1 µM	N#Cc1cnn2c1[nH]c1cc(F)cc(C(N)=O)c12 [Example 37, 3-cyano-6-fluoro-4H-benzo[4,5]imidazo[1,2-b]pyrazole-8-carboxamide]
> 1 µM	0.101 to 1 µM	N#Cc1cnn2c1[nH]c1cccc(C(N)=O)c12 [Example 38, 3-cyano-4H-benzo[4,5]imidazo[1,2-b]pyrazole-8-carboxamide]
0.101 to 1 µM	0.001 to 0.1 µM	NCc1cnn2c1[nH]c1cc(F)cc(C(N)=O)c12 [Example 39, 3-(aminomethyl)-6-fluoro-4H-benzo[4,5]imidazo[1,2-b]pyrazole-8-carboxamide]
> 1 µM	0.001 to 0.1 µM	NC(=O)c1cc(F)cc2[nH]c3c(CNC(=O)C4CC4)cnn3c12 [Example 40, 3-(cyclopropanecarboxamidomethyl)-6-fluoro-4H-benzo[4,5]imidazo[1,2-b]pyrazole-8-carboxamide]
> 1 µM	0.101 to 1 µM	NC(=O)c1cc(F)cc2[nH]c3c(-c4ccc(F)cc4)cnn3c12 [Example 41, 6-fluoro-3-(4-fluorophenyl)-4H-benzo[4,5]imidazo[1,2-b]pyrazole-8-carboxamide]
0.101 to 1 µM	0.001 to 0.1 µM	CNCc1ccc(-c2cnn3c2[nH]c2cc(F)cc(C(N)=O)c23)c(F)c1 [Example 42, 6-fluoro-3-(2-fluoro-4-((methylamino)methyl)phenyl)-4H-benzo[4,5]imidazo[1,2-b]pyrazole-8-carboxamide]
0.101 to 1 µM	0.001 to 0.1 µM	CNCc1ccc(-c2cnn3c2[nH]c2cc(F)cc(C(N)=O)c23)cc1 [Example 43, 6-fluoro-3-(4-((methylamino)methyl)phenyl)-4H-benzo[4,5]imidazo[1,2-b]pyrazole-8-carboxamide]
0.101 to 1 µM	0.101 to 1 µM	CNCc1ccc(F)c(-c2cnn3c2[nH]c2cc(F)cc(C(N)=O)c23)c1 [Example 44, 6-fluoro-3-(2-fluoro-5-((methylamino)methyl)phenyl)-4H-benzo[4,5]imidazo[1,2-b]pyrazole-8-carboxamide]
> 1 µM	0.101 to 1 µM	NC(=O)c1cc(F)cc2[nH]c3c(-c4ccncc4)cnn3c12 [Example 45, 6-fluoro-3-(pyridin-4-yl)-4H-benzo[4,5]imidazo[1,2-b]pyrazole-8-carboxamide]
> 1 µM	0.101 to 1 µM	NC(=O)c1cc(F)cc2[nH]c3c(-c4ccc(C5CCCNC5)cc4)cnn3c12 (centres unmarked) [Example 46, 6-fluoro-3-(4-(piperidin-3-yl)phenyl)-4H-benzo[4,5]imidazo[1,2-b]pyrazole-8-carboxamide]
> 1 µM	0.001 to 0.1 µM	NC(=O)c1cc(F)cc2[nH]c3c(C4CCOCC4)cnn3c12 [Example 47, 6-fluoro-3-(tetrahydro-2H-pyran-4-yl)-4H-benzo[4,5]imidazo[1,2-b]pyrazole-8-carboxamide]
0.001 to 0.1 µM	0.001 to 0.1 µM	CN(C)C1CCC(c2cnn3c2[nH]c2cc(F)cc(C(N)=O)c23)CC1 (centres unmarked) [Example 48, 3-(4-(dimethylamino)cyclohexyl)-6-fluoro-4H-benzo[4,5]imidazo[1,2-b]pyrazole-8-carboxamide]
0.101 to 1 µM	0.001 to 0.1 µM	CN1CCN(C(=O)c2cnn3c2[nH]c2cc(F)cc(C(N)=O)c23)CC1 [Example 49, 6-fluoro-3-(4-methylpiperazine-1-carbonyl)-4H-benzo[4,5]imidazo[1,2-b]pyrazole-8-carboxamide]
> 1 µM	0.101 to 1 µM	NC(=O)c1cc(F)cc2c1-n1ncc(C3CCN(CC4CC4)CC3)c1C2(F)F [Example 50, 3-(1-(cyclopropylmethyl)piperidin-4-yl)-4,4,6-trifluoro-4H-pyrazolo[1,5-α]indole-8-carboxamide]

Structure (SMILES)	EC50 (HCC1937 cells)	IC50 (PARP-1)
CCN1C2CCC1CC(c1cnn3c1[nH]c1cc(F)cc(C(N)=O)c13)C2 (centres unmarked) [Example 35, 3-(8-ethyl-8-azabicyclo[3.2.1]octan-3-yl)-6-fluoro-4H-benzo[4,5]imidazo[1,2-b]pyrazole-8-carboxamide]	0.101 to 1 µM	0.001 to 0.1 µM
CC1(c2cnn3c2[nH]c2cc(F)cc(C(N)=O)c23)CCN(CC2(C#N)CCC2)CC1 [Example 64, 3-(1-((1-cyanocyclobutyl)methyl)-4-methylpiperidin-4-yl)-6-fluoro-4H-benzo[4,5]imidazo[1,2-b]pyrazole-8-carboxamide]	0.101 to 1 µM	0.001 to 0.1 µM
CC1(c2cnn3c2[nH]c2cc(F)cc(C(N)=O)c23)CCN(CCS(C)(=O)=O)CC1 [Example 65, 6-fluoro-3-(4-methyl-1-(2-(methylsulfonyl)ethyl)piperidin-4-yl)-4H-benzo[4,5]imidazo[1,2-b]pyrazole-8-carboxamide]	0.001 to 0.1 µM	0.001 to 0.1 µM
CC1(c2cnn3c2[nH]c2cc(F)cc(C(N)=O)c23)CCN(CC2CCOCC2)CC1 [Example 66, 6-fluoro-3-(4-methyl-1-((tetrahydro-2H-pyran-4-yl)methyl)piperidin-4-yl)-4H-benzo[4,5]imidazo[1,2-b]pyrazole-8-carboxamide]	0.001 to 0.1 µM	0.001 to 0.1 µM
CC1(c2cnn3c2[nH]c2cc(F)cc(C(N)=O)c23)CCN(CC2(N)CC2)CC1 [Example 67, 3-(1-((1-aminocyclopropyl)methyl)-4-methylpiperidin-4-yl)-6-fluoro-4H-benzo[4,5]imidazo[1,2-b]pyrazole-8-carboxamide]	0.001 to 0.1 µM	0.001 to 0.1 µM
CC1(c2cnn3c2[nH]c2cc(F)cc(C(N)=O)c23)CCN(CC2COC2)CC1 [Example 68, 6-fluoro-3-(4-methyl-1-(oxetan-3-ylmethyl)piperidin-4-yl)-4H-benzo[4,5]imidazo[1,2-b]pyrazole-8-carboxamide]	0.001 to 0.1 µM	0.001 to 0.1 µM
COCCN1CCC(C)(c2cnn3c2[nH]c2cc(F)cc(C(N)=O)c23)CC1 [Example 69, 6-fluoro-3-(1-(2-methoxyethyl)-4-methylpiperidin-4-yl)-4H-benzo[4,5]imidazo[1,2-b]pyrazole-8-carboxamide]	0.001 to 0.1 µM	0.001 to 0.1 µM
